The values below come from PubChem BioAssay (NCI).

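Five compound concentrations were applied to cells in 96-well plates for 48 hours; endpoints were derived by simple linear interpolation of the resulting dose-response curve. The concentration for full growth arrest is given as TGI.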

Test in all cases: growth of human tumour cells (NCI), 48 h
Assay [1] concerns 786-0 renal.
The subject of assay [2] is SW-620 colon.
Assay [3] deals with SNB-75 CNS.
Assay [4] has as its system MALME-3M melanoma.
Assay [5] concerns OVCAR-5 ovarian.
The test system of assay [6] is A549 NSCLC.
In assay [7] the test system is RXF 393 renal.

In the case of `COc1ccc(N=c2ssc3c(=S)ssc23)cc1`, the TGI was > 100 µM in assay [1]; 35.8 µM in assay [2]; 75.6 µM in assay [3]; > 100 µM in assay [4]; > 100 µM in assay [5]; > 100 µM in assay [6]. The same compound had a TGI in assay [7] of 38.7 µM.

In the case of `c1ccc(SC(CCCCC(Sc2ccccc2)Sc2ccccc2)Sc2ccccc2)cc1`, the TGI in assay [1], in assay [2], in assay [3], in assay [6] and in assay [7] was > 100 µM each time.

In the case of `Cn1cnc2nc(Cl)nc(NC(C)(C)C(C)(C)O)c21`, the TGI in assay [1], in assay [2], in assay [3], in assay [4], in assay [5] and in assay [6] was > 100 µM in each case. Further, the TGI in assay [7] was > 100 µM.

On to `C=CCc1cc(OC)c2c(c1)C(O)CC(c1ccccc1)O2` (stereo unspecified), for which the TGI in assay [1], in assay [2], in assay [3], in assay [4], in assay [5] and in assay [6] was > 100 µM throughout.

For the compound `CCOC(=O)C(C)(c1cn(C)c2ccccc12)c1cn(C)c2ccccc12`, the TGI in assay [1] was > 100 µM; in assay [2] it was > 100 µM; in assay [3], 51.9 µM; in assay [4], > 100 µM; in assay [5] it was > 100 µM; in assay [6], > 100 µM. For the same compound, in assay [7], the TGI is > 100 µM.

In the case of `Brc1cccc(C2SCc3nc4ccccc4n32)c1` (stereo unspecified), the TGI is 44.5 µM in assay [1]; > 100 µM in assay [2]; 3.51 µM in assay [3]; 77.5 µM in assay [4]; > 100 µM in assay [5]; > 100 µM in assay [6]. The TGI in assay [7] worked out at 26.4 µM.

As to `CSCC1CC(c2ccc(Cl)cc2)=NO1` (stereo unspecified), the TGI in assay [1], in assay [2], in assay [3], in assay [4], in assay [5] and in assay [6] was > 100 µM throughout.

As to `Cc1cc2c(C)n(Cc3ccc(Cl)cc3Cl)nc2c(C#N)c1C`, the TGI is 37.4 µM in assay [1]; > 100 µM in assay [2]; 62 µM in assay [3]; > 81.6 µM in assay [4]; > 56.2 µM in assay [5]; > 100 µM in assay [6]. Further, the TGI in assay [7] is 57.3 µM.

As for `c1ccc2c(C3NCCc4[nH]cnc43)cccc2c1` (stereo unspecified), the TGI in assay [1], in assay [2], in assay [3], in assay [5], in assay [6] and in assay [7] was > 100 µM throughout.

`CCC1CN2CCc3cc(OC)c(OC)cc3C2CC1CC1c2cc(OC)c(OC)cc2CCN1C(=O)C1CCCN1C(=O)OCc1ccccc1` (stereo unspecified): the TGI came to 40.8 µM in assay [1]; 28 µM in assay [2]; 28.3 µM in assay [3]; 32.4 µM in assay [4]; 34.2 µM in assay [5]; 39.2 µM in assay [6]. The compound also returned a TGI in assay [7] of 22.4 µM.

Regarding `CCCCCCc1cc(C(=O)Nc2cccc(C(F)(F)F)c2)nc(N)n1`, the TGI in assay [1], in assay [2], in assay [3], in assay [4], in assay [5] and in assay [6] was > 100 µM in each case. Besides, the TGI in assay [7] was > 100 µM.

Take `O=C(O)C1(P(=O)(O)O)CC1`: the TGI in assay [1], in assay [2], in assay [3], in assay [4], in assay [6] and in assay [7] was > 100 µM each time.

Take `N#CC(C(=O)CCC(=O)Nc1cccc(Cl)c1)c1ccccc1` (stereo unspecified): the TGI in assay [1], in assay [3], in assay [4], in assay [5], in assay [6] and in assay [7] was > 100 µM throughout.

With `C=C1COC(/C=C(\C)CC/C=C(\C)CCl)C1` (stereo unspecified), the TGI in assay [1], in assay [2], in assay [3], in assay [5], in assay [6] and in assay [7] was > 100 µM each time.

Regarding `COc1ccc(OC)c(NC(=O)CCC/C(CC(=O)c2ccc(O)c(OC)c2)=N\NC(=O)C[N+](C)(C)C)c1`, the TGI in assay [1], in assay [2], in assay [3], in assay [4], in assay [5] and in assay [6] was > 100 µM in each case.

On to `Cc1c(C#N)c(=O)[nH]c(=O)n1CCN1CCN(C(=O)NCCCCCCNC(=O)N2CCN(CCn3c(C)c(C#N)c(=O)[nH]c3=O)CC2)CC1`, for which the TGI in assay [1], in assay [2], in assay [3], in assay [6] and in assay [7] was > 100 µM throughout.
